Measured values from publication PMC10845951, “Characterization of a selective, iron-chelating antifungal compound that disrupts fungal metabolism and synergizes with fluconazole” (Microbiology Spectrum, 2024).

Legend:
[1] = system: Candida glabrata (ATCC15545; JEY10028) wild type; assay: Compound screening: proliferation (OD600, 24 h); type: cell-based; conditions: wild-type C. glabrata (JEY10028), SD media
Experimental: For experiments, yeast cells were routinely cultured in YPD media and incubated at 30°C overnight. The cultures were refreshed the next day for 2–3 h in YNB −iron (0.69% yeast nitrogen base without amino acids or iron, with 2% dextrose) media, unless stated, at the same temperature. After incubation, the optical density (OD600) of the cell cultures was measured and adjusted to 0.15.
The collismycin compounds were provided by EntreChem (Spain) at stock solutions of 20 mM in DMSO and stored at −20°C. For serial dilutions of the compounds in clear 96-well plates, intermediate stock concentrations of 100 µM of compound (100 µL for each technical replicate) were prepared in YNB −iron media unless otherwise specified, and 1:1 serial dilutions were performed using a multi-channel pipette. Fifty microliters of cell culture (OD600 = 0.15) were added to the wells containing the compounds, for a total volume of 150 µL. The final concentrations in the wells (with three technical replicates) were equivalent to 0.5, 1, 2.1, 4.2, 8.4, 16.7, 33.3, and 66.6 µM. The OD600 of each well was quantified, and the plates were incubated inside plastic bags (to prevent evaporation) at 30°C for 24 h, after which the final OD600 was measured. The EC50 was calculated using the four-parameter log logistic function with the drc package in R ([57]).

C. albicans WT = conditions: 24 h
[2] = Candida albicans, read-out: C. albicans WT Inhibition (%)

Compound	antifungal activity [1]	susceptibility to fluconazole alone (C. albicans WT; YNB −iron)	inhibition at 3.13 µM (C. albicans WT; [2])	inhibition at 6.25 µM (C. albicans WT; [2])	inhibition at 25 µM (C. albicans WT; [2])	inhibition at 50 µM (C. albicans WT; [2])	inhibition at 100 µM (C. albicans WT; [2])
COc1cc(-c2ccccn2)nc(CO)c1SC [ColH, collismycin H]	lacked antifungal activity even at very high concentrations						
OC(Cn1cncn1)(Cn1cncn1)c1ccc(F)cc1F [Fluconazole, fluconazole]		only susceptible to high concentrations	-1.65%	9.43%	14.8%	15.4%	19.6%
